# Source: US4229371A, “Ureylene naphthalene sulfonic acid intermediates” (American Cyanamid Company, priority 1978, dated 1980)
# Where a name gives a salt, the structure may show the parent alone. Read-outs that look alike come from different tables or passages of the source.
# Assays:
# activated human C1 = biological target: T1, activated human C1 (Homo sapiens, UniProt P09871); assay: Test, Code 026 (C1 inhibitor); type: biochemical; details: higher well number indicates higher activity
# T1 construct: test of C2 destruction in presence of C4
# T1 sequence (P09871 16-688): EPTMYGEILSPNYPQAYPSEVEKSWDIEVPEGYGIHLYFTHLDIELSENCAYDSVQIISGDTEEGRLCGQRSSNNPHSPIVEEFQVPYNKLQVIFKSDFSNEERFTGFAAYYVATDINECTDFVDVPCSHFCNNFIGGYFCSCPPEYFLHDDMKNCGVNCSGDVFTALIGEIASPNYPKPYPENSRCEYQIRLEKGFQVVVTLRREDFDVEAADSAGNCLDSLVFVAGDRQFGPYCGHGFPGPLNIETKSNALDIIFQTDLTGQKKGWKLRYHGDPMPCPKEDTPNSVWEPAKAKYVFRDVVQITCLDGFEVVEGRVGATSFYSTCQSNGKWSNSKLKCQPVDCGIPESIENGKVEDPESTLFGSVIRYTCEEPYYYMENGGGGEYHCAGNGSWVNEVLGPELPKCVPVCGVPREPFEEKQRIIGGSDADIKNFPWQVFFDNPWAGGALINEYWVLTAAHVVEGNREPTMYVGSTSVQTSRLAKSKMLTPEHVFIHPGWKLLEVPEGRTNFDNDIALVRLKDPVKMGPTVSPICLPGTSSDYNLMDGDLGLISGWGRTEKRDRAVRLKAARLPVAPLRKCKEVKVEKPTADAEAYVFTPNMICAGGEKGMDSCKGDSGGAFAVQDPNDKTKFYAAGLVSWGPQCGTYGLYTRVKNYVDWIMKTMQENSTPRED
# T1 sequence (P00736 18-705 partner): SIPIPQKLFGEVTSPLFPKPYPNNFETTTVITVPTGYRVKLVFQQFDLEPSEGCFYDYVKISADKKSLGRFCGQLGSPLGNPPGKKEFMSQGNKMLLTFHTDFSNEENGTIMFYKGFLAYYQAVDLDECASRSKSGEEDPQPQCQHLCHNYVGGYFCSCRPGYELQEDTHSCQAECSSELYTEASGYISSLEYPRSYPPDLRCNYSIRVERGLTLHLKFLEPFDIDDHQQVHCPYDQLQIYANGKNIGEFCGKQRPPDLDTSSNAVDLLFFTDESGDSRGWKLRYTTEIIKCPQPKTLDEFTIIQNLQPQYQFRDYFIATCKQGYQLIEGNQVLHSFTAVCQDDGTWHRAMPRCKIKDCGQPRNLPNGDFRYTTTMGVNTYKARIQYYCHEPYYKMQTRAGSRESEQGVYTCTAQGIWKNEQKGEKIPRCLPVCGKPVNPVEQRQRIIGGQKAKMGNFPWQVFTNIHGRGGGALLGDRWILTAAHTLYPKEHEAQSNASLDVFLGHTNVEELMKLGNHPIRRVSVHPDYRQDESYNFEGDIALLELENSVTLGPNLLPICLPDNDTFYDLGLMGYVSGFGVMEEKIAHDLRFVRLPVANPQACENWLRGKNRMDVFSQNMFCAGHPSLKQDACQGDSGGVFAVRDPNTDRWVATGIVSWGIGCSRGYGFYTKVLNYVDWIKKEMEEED
# T1 sequence (P02745 23-245 partner): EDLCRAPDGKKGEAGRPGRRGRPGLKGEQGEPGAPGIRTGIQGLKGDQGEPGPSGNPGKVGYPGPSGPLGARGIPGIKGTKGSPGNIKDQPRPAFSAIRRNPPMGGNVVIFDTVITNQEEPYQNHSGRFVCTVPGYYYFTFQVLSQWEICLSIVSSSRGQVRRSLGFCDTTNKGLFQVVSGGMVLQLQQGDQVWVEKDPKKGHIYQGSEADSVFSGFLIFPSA
# T1 sequence (P02746 28-253 partner): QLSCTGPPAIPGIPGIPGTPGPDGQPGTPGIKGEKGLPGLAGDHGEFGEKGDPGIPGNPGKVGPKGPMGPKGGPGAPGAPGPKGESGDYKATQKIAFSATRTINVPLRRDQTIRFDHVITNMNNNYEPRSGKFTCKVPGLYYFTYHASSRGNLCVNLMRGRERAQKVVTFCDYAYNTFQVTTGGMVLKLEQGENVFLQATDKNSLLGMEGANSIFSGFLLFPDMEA
# T1 sequence (P02747 29-245 partner): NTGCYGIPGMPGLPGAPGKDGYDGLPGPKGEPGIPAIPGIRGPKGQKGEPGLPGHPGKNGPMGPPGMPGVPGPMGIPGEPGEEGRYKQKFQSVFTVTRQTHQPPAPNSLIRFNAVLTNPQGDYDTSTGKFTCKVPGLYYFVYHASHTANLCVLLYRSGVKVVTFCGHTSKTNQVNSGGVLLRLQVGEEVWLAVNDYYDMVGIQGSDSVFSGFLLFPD
# Excerpt: (§1) An active inhibitor protects C2 from C1 and C4; (ii) Test, Code 035 (C3-C9 inhibitor)--This test determines the ability of the late components of human complement (C3-C9) to lyse EAC 142 in the presence of appropriate dilutions of the test compound. An active inhibitor protects EAC 142 from lysis by human C3-C9; (iii) Test, Code 036 (C-Shunt inhibitor)--In this test human erythrocytes rendered fragile are lysed in autologous serum via the shunt pathway activated by cobra venom factor in the presence of appropriate dilutions of the test compound. Inhibition of the shunt pathway results in failure of lysis; (iv) Forssman Vasculitis Test--Here, the well known complement dependent lesion, Forssman vasculitis, is produced in guinea pigs by intradermal injection of rabbit anti-Forssman antiserum. The lesion is measured in terms of diameter, edema and hemorrhage and the extent to which a combined index of these is inhibited by prior intraperitoneal injection of the test compound at 200 mg/kg is then reported, unless otherwise stated; (v) Forssman Shock Test--Lethan shock is produced in guinea pigs by an i.v. injection of anti-Forssman antiserum and the harmonic mean death time of treated guinea pigs is compared with that of simultaneous controls; (vi) Complement Level Reduction Test--In this test, the above dosed guinea pigs, or others, are bled for serum and the complement level is determined in undiluted serum by the capillary tube method of U.S. Pat. No. 3,876,376 and compared to undosed control guinea pigs; and (vii) Cap 50 Test--Here, appropriate amounts of the test compound are added to a pool of guinea pig serum in vitro, after which the undiluted serum capillary tube assay referred to above is run. The concentration of compound inhibiting 50% is reported.
# (§2) *Code designation for tests employed as referred herein.
# (§3) **Activity in wells a serial dilution assay. Higher well number indicates
# (§4) higher activity. The serial dilutions are twofold.
# [1] = system: shunt pathway activated by cobra venom factor; assay: Test, Code 036 (C-Shunt inhibitor); type: cell-based, human; details: higher well number indicates higher activity
# Excerpt: as §1, §2, §3, §4
# whole complement = assay: In vivo activity, complement level reduction in serum of dosed guinea pigs (capillary tube assay); design: species or system guinea pig
# [2] = system: late components of human complement (C3-C9); assay: Test, Code 035 (C3-C9 inhibitor); type: cell-based; details: higher well number indicates higher activity
# Excerpt: as §1, §2, §3, §4
# [3] = in words; literature; cited from earlier work
# [4] = system: total hemolytic complement activity; details: human serum, in vitro; in words; cited from earlier work
# [5] = system: total hemolytic complement activity; details: human serum; in words; cited from earlier work
# complement system = details: in words; literature; cited from earlier work
# [6] = Table II (intermediates), twofold serial dilution
# [7] = Table II, intraperitoneal, time 30 min.
# [8] = Table II, intraperitoneal, time 60 min.
# [9] = Table II, intraperitoneal, time 120 min.
# [10] = Table II, intravenous, time 2 min.
# [11] = Table II, intravenous, time 30 min.
# [12] = Table II, intravenous, time 120 min.
# [13] = Table I, activity in wells, twofold serial dilution assay
compound,measurement,setting,value
"Nc1ccc(C(=O)Nc2cc(C(=O)Nc3cc(S(=O)(=O)O)cc4cc(S(=O)(=O)O)cc(S(=O)(=O)O)c34)cc(C(=O)Nc3cc(S(=O)(=O)O)cc4cc(S(=O)(=O)O)cc(S(=O)(=O)O)c34)c2)c(S(=O)(=O)O)c1 [8,8'-[5-(4-Amino-2-sulfobenzamido)-1,3-phenylenedicarbonylimino]di-1,3,6-naphthalenetrisulfonic acid heptasodium salt]",Cl 026 Wells,activated human C1; [6],+6 Wells
same,Shunt Inhibition 036 Wells,[1]; [6],+2 Wells
same,In Vivo Activity (Guinea Pig) % Inhibition,whole complement; [7],-45%
same,In Vivo Activity (Guinea Pig) % Inhibition,whole complement; [8],-61%
same,In Vivo Activity (Guinea Pig) % Inhibition,whole complement; [9],-73%
same,In Vivo Activity (Guinea Pig) % Inhibition,whole complement; [10],-98%
same,In Vivo Activity (Guinea Pig) % Inhibition,whole complement; [11],-79%
same,In Vivo Activity (Guinea Pig) % Inhibition,whole complement; [12],-45%
same,C-Late 035 Wells,[2]; [6],+3 Wells
NC[C@H]1CC[C@H](C(=O)O)CC1 [tranexamic acid],success in the treatment of hereditary angioneurotic edema,[3],used with success in the treatment of hereditary angioneurotic edema
pentosanpoly-sulfoester,anticomplementary activity (reduction in total hemolytic complement activity),[4],anticomplementary activity on human serum both in vitro and in vivo
same,anticomplementary activity (reduction in total hemolytic complement activity),[5],anticomplementary activity on human serum both in vitro and in vivo
"Nc1ccc2cc(S(=O)(=O)O)cc(O)c2c1N=Nc1ccc(NC(=O)Nc2ccc(N=Nc3c(N)ccc4cc(S(=O)(=O)O)cc(O)c34)c(S(=O)(=O)O)c2)cc1S(=O)(=O)O [chlorazol fast pink, 3,3'-ureylenebis-[6-(2-amino-8-hydroxy-6-sulfo-1-naphthylazo)]benzenesulfonic acid, tetrasodium salt]",anticomplementary effect / complement inhibition,complement system,anticomplementary effect
NCCCCCC(=O)O [epsilon-aminocaproic acid],success in the treatment of hereditary angioneurotic edema,[3],used with success in the treatment of hereditary angioneurotic edema
heparin,anticomplementary effect / complement inhibition,complement system,anticomplementary effect
"O=C(Nc1cc(S(=O)(=O)O)cc2cc(S(=O)(=O)O)cc(S(=O)(=O)O)c12)c1cc(NC(=O)c2ccc([N+](=O)[O-])cc2S(=O)(=O)O)cc(C(=O)Nc2cc(S(=O)(=O)O)cc3cc(S(=O)(=O)O)cc(S(=O)(=O)O)c23)c1 [8,8'-[5-(4-Nitro-2-sulfobenzamido)-1,3-phenylenedicarbonylimino]di-1,3,6-naphthalenetrisulfonic acid heptasodium salt]",Cl 026 Wells,activated human C1; [6],+4 Wells
same,Shunt Inhibition 036 Wells,[1]; [6],+1 Wells
same,In Vivo Activity (Guinea Pig) % Inhibition,whole complement; [7],-40%
same,In Vivo Activity (Guinea Pig) % Inhibition,whole complement; [8],-55%
same,In Vivo Activity (Guinea Pig) % Inhibition,whole complement; [9],-74%
same,In Vivo Activity (Guinea Pig) % Inhibition,whole complement; [10],-91%
same,In Vivo Activity (Guinea Pig) % Inhibition,whole complement; [11],-59%
same,In Vivo Activity (Guinea Pig) % Inhibition,whole complement; [12],-51%
same,C-Late 035 Wells,[2]; [6],+2 Wells
"O=C(Nc1ccc(C(=O)Nc2cc(C(=O)Nc3cc(S(=O)(=O)O)cc4cc(S(=O)(=O)O)cc(S(=O)(=O)O)c34)cc(C(=O)Nc3cc(S(=O)(=O)O)cc4cc(S(=O)(=O)O)cc(S(=O)(=O)O)c34)c2)c(S(=O)(=O)O)c1)Nc1ccc(C(=O)Nc2cc(C(=O)Nc3cc(S(=O)(=O)O)cc4cc(S(=O)(=O)O)cc(S(=O)(=O)O)c34)cc(C(=O)Nc3cc(S(=O)(=O)O)cc4cc(S(=O)(=O)O)cc(S(=O)(=O)O)c34)c2)c(S(=O)(=O)O)c1 [8,8',8"",8'""Ureylenebis[(2-sulfo-4,1-phenylene)carbonylimino-s-phenenylbis(carbonylimino)]tetra-1,3,6-naphthalenetrisulfonic acid tetradecyl sodium salt]",Cl 026 Wells,activated human C1; [13],+8 Wells
same,Shunt Inhibition 036 Wells,[1]; [13],+5 Wells
same,In Vivo Activity (Guinea Pig) % Inhibition,"whole complement; Table I, intravenous, 200 mg/kg, time 2 minutes",-97%
same,In Vivo Activity (Guinea Pig) % Inhibition,"whole complement; Table I, intravenous, 200 mg/kg, time 30 minutes",-96%
same,In Vivo Activity (Guinea Pig) % Inhibition,"whole complement; Table I, intravenous, 200 mg/kg, time printed 20 minutes",-95%
same,C-Late 035 Wells,[2]; [13],+5 Wells
Cc1ccc(C(=O)Nc2ccc(S(=O)(=O)O)c3cc(S(=O)(=O)O)cc(S(=O)(=O)O)c23)cc1NC(=O)c1cccc(NC(=O)Nc2cccc(C(=O)Nc3cc(C(=O)Nc4ccc(S(=O)(=O)O)c5cc(S(=O)(=O)O)cc(S(=O)(=O)O)c45)ccc3C)c2)c1 [Suramin],anticomplementary effect / complement inhibition,complement system,competitive inhibitor of the complement system
